This note sets out measurements from patent publication US20250374923A1 (priority 2022, published 2025).

“And” between values parts separate entries of the source, which are not always exact repeats. Equal values may be shown once. Where a name gives a salt, the structure may show the parent alone.

For data set [1] the following is noted: average of six replications; fruit collected December 7.
Text: (§1) Treatments included the application of oxytetracycline (OTC) using Invaio's proprietary injection system into the scion of each tree. The trial was designed as a randomized complete blocking which three treatments were applied to each of four trees within each of six replications at three different treatment dates. […] The OTC is a commercial oxytetracycline product. One injection of OTC was made in each tree for the first two injections timings and two OTC injections were made per tree at the third application timing.
Fruit was collected from trees of the OTC treatment by replication on December 7 and bulked according to treatment and replication to create individual fruit samples for OTC residue analysis. Similarly, fruit was collected from trees from two replications of nontreated treatments and bulked by replication to create individual fruit samples for OTC residue analysis.
The test system of data set [2] is citrus greening. The conditions noted are these: average across six replications; harvested December 21.
Text: as §1
Fruit yield. Fruit yield was determined for trees of each treatment as the total weight (lbs) of fruit picked (harvested) from each tree on December 21. Fruit yield was recorded as an average by replication and as an average across all six replications (Table 3).
Data set [3] has as its system citrus greening. In words: Example 1 field trial: BRIX analysis of fruit. The conditions noted are these: fruit collected December 8.
Text: (§2) Field trial design. […] Treatments included the application of oxytetracycline (OTC) using Invaio's proprietary injection system into the scion of each tree. The trial was designed as a randomized complete blocking which three treatments were applied to each of four trees within each of six replications at three different treatment dates. […] The OTC is a commercial oxytetracycline product. One injection of OTC was made in each tree for the first two injections timings and two OTC injections were made per tree at the third application timing.
BRIX analysis. Fruit was collected from trees of each treatment by replication on December 8 and bulked according to treatment and replication to create individual fruit samples for BRIX analysis.
Data set [4] has as its system citrus greening. The data set can be described thus: Example 1 field trial: fruit drop.
Text: as §2
Fruit drop. Fruit drop was determined for trees of each treatment as the number of fruit on the ground underneath each tree at each of six counting dates, approximately 2 weeks apart, beginning on October 13 and finishing prior to fruit harvest on December 21. Counted fruit were removed from the ground after each counting date. Fruit drop was recorded as an average by date and as an average across all six dates (Table 4).
The test system of data set [5] is citrus greening.
Experimental: The treatment delivered 150 mg OTC-HCl per season.
The treatment delivered 600 mg OTC-HCl per season.

For `CN(C)[C@@H]1C(O)=C(C(N)=O)C(=O)[C@@]2(O)C(O)=C3C(=O)c4c(O)cccc4[C@@](C)(O)[C@H]3[C@H](O)[C@@H]12` [OTC, oxytetracycline], in data set [1], the “OTC residue in fruit, treatment average” value is 0.007 ppm and 0.006616 ppm. In addition, in the data set on citrus greening [2], the “Fruit yield (lbs per tree), treatment average” value is 48.7 lbs per tree and 50.4 lbs per tree. In addition, the “Brix, treatment average” value in the data set with citrus greening [3] (average of six replications) stood at 8.0. Also, in the data set with citrus greening [3] (by replication, OTC 1.58 mg/mL, 60 ml scion injections), the Brix was 8.1 and 8.4 and 8 and 7.6. The “Fruit drop (number), treatment average” value with citrus greening [4] (average across replications and dates) is recorded as 17.8 number. Also, the “Fruit drop (number), rep average across dates” value with citrus greening [4] (average of six counting dates, by replication) was 20.9 number and 20.5 number and 16.0 number and 17.1 number and 14.5 number and 18.0 number. Also, the “Fruit drop (number)” value in the data set with citrus greening [4] (counting date 8-Dec, by replication) is 19.0 number and 13.3 number and 14.0 number and 12.3 number and 15.0 number and 22.8 number; in the data set with citrus greening [4] (counting date 9-Nov, by replication), 31.5 number and 20.5 number and 23.8 number and 18.5 number and 22.0 number and 28.0 number; with citrus greening [4] (counting date 13-Oct, by replication) it was 11.5 number and 8.8 number and 9.0 number and 7.3 number and 14.5 number and 14.3 number; in the data set with citrus greening [4] (counting date 21-Dec, by replication) it was 17.5 number and 20.0 number and 16.5 number and 16.8 number and 12.0 number and 15.0 number; in the data set with citrus greening [4] (counting date 24-Nov, by replication), 26.8 number and 18.3 number and 20.8 number and 21.8 number and 28.0 number; in the data set with citrus greening [4] (counting date 28-Oct, by replication), 14.5 number and 18.8 number and 18.3 number and 16.3 number and 19.8 number and 15.0 number.
Turning to `CN(C)[C@@H]1C(O)=C(C(N)=O)C(=O)[C@@]2(O)C(O)=C3C(=O)c4c(O)cccc4[C@@](C)(O)[C@H]3[C@H](O)[C@@H]12` [OTC-HCl, oxytetracycline hydrochloride], the “yield increase over water” value in the data set with citrus greening [5] (150 mg OTC-HCl per season (FIG. 30)) was “about 74%”. For the same molecule, the “yield increase over the nontreated controls” value in the data set with citrus greening [5] (600 mg OTC-HCl per season (FIG. 31)) was around 53%.
